# According to the supplement of paper PMC6045584:
# ± gives the standard deviation of the averaged measurements.
# Assays:
# [1] = compound: CC(=O)NCC(=O)N1[C@@H]2CC[C@H]1c1ccc(Nc3ncc(C(F)(F)F)c(NC4CCC4)n3)cc12; assay: surviving fraction relative to DMSO-only wells; higher = less growth inhibition; details: exposure time: 5 days
# Method in brief: (§1)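 A line counted only if its three screens reached replicate Pearson r >0.7 and median Z' >0.3. Tumour cells in log phase were seeded at 250–500 per well in 384-well plates and, after 24 hours, kept in continuous contact with inhibitors at 0.5, 1, 5, 10, 50, 100, 500 and 1000 nM for five days. Surviving fraction was taken from CellTiter-Glo luminescence relative to the median of DMSO-only wells.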
# [2] = compound: T1, CC(=O)O[C@H]1C(=O)[C@@]2(C)[C@H]([C@H](OC(=O)c3ccccc3)[C@]3(O)C[C@H](OC(=O)[C@H](O)[C@@H](NC(=O)c4ccccc4)c4ccccc4)C(C)=C1C3(C)C)[C@]1(OC(C)=O)CO[C@@H]1C[C@@H]2O [PACLITAXEL]; assay: as above; details: exposure time: 5 days
# Method in brief: as §1
# [3] = compound: CC(=O)c1c(C)c2cnc(Nc3ccc(N4CCNCC4)cn3)nc2n(C2CCCC2)c1=O; assay: as above; details: exposure time: 5 days
# Method in brief: as §1
# [4] = compound: T2, CC[C@@]1(O)C(=O)OCc2c1cc1n(c2=O)Cc2cc3ccccc3nc2-1 [CAMPTOTHECIN]; assay: as above; details: exposure time: 5 days
# Method in brief: as §1
# [5] = compound: T3, COCC[n+]1c2c(n(Cc3cnccn3)c1C)C(=O)c1ccccc1C2=O [YM155]; assay: as above; details: exposure time: 5 days
# Method in brief: as §1
# [6] = compound: T4, COc1cc2ncnc(Nc3ccc(F)c(Cl)c3)c2cc1OCCCN1CCOCC1 [GEFITINIB]; assay: as above; details: exposure time: 5 days
# Method in brief: as §1
# [7] = compound: T5, C[C@]1(O)C[C@@H](c2nc(-c3ccc4ccc(-c5ccccc5)nc4c3)c3c(N)nccn32)C1 [OSI-906]; assay: as above; details: exposure time: 5 days
# Method in brief: as §1
# [8] = compound: T6, Cc1ccc(-c2cc(C(F)(F)F)nn2-c2ccc(S(N)(=O)=O)cc2)cc1 [CELECOXIB]; assay: as above; details: exposure time: 5 days
# Method in brief: as §1
# [9] = compound: T7, O=C(O)C1(C(=O)O)CCC1.[NH2-].[NH2-].[Pt+2] [CARBOPLATIN]; assay: as above; details: exposure time: 5 days
# Method in brief: as §1
# [10] = compound: CC(=O)NCC(=O)N1[C@@H]2CC[C@H]1c1ccc(Nc3ncc(C(F)(F)F)c(NC4CCC4)n3)cc12; assay: area under dose-response curve of surviving fraction (unscaled, Aref=0) (surviving fraction x log10(nM)); higher = more resistant; details: exposure time: 5 days; dose range 0.5-1000 nM
# Method in brief: (§2)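 Tumour cell lines in 384-well plates were exposed for five days to eight inhibitor concentrations from 0.5 to 1000 nM. Viability was read by CellTiter-Glo luminescence, normalised to DMSO-only wells, in three screens per line. Dose-response survival curves were fitted to surviving fractions by 3-parameter logistic regression in the drc R package. Area under the curve is the unscaled activity area (Aref = 0) over log10 dose.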
# [11] = compound: T1, PACLITAXEL; assay: as above; details: exposure time: 5 days; dose range 0.5-1000 nM
# Method in brief: as §2
# [12] = compound: CC(=O)c1c(C)c2cnc(Nc3ccc(N4CCNCC4)cn3)nc2n(C2CCCC2)c1=O; assay: as above; details: exposure time: 5 days; dose range 0.5-1000 nM
# Method in brief: as §2
# [13] = compound: T2, CAMPTOTHECIN; assay: as above; details: exposure time: 5 days; dose range 0.5-1000 nM
# Method in brief: as §2
# [14] = compound: T3, YM155; assay: as above; details: exposure time: 5 days; dose range 0.5-1000 nM
# Method in brief: as §2
# [15] = compound: T4, GEFITINIB; assay: as above; details: exposure time: 5 days; dose range 0.5-1000 nM
# Method in brief: as §2
# [16] = compound: T5, OSI-906; assay: as above; details: exposure time: 5 days; dose range 0.5-1000 nM
# Method in brief: as §2
# [17] = compound: T6, CELECOXIB; assay: as above; details: exposure time: 5 days; dose range 0.5-1000 nM
# Method in brief: as §2
# [18] = compound: T7, CARBOPLATIN; assay: as above; details: exposure time: 5 days; dose range 0.5-1000 nM
# Method in brief: as §2
test system,measurement,setting,value
HSSYII SYNOVIAL,surviving fraction,[1]; 0.5 nM,0.921 ± 0.035
same,surviving fraction,[1]; 1 nM,0.8998 ± 0.0079
same,surviving fraction,[1]; 5 nM,0.886 ± 0.044
same,surviving fraction,[1]; 10 nM,0.851 ± 0.05
same,surviving fraction,[1]; 50 nM,0.438 ± 0.017
same,surviving fraction,[1]; 100 nM,0.222 ± 0.015
same,surviving fraction,[1]; 500 nM,0.177 ± 0.015
same,surviving fraction,[1]; 1000 nM,0.185 ± 0.0066
same,surviving fraction,[2]; 0.5 nM,0.836 ± 0.0087
same,surviving fraction,[2]; 1 nM,0.558 ± 0.021
same,surviving fraction,[2]; 5 nM,0.0827 ± 0.011
same,surviving fraction,[2]; 10 nM,0.0622 ± 0.0043
same,surviving fraction,[2]; 50 nM,0.0613 ± 0.0025
same,surviving fraction,[2]; 100 nM,0.0585 ± 0.0041
same,surviving fraction,[2]; 500 nM,0.049 ± 0.0033
same,surviving fraction,[2]; 1000 nM,0.0538 ± 0.0021
same,surviving fraction,[3]; 0.5 nM,0.986 ± 0.015
same,surviving fraction,[3]; 1 nM,0.935 ± 0.028
same,surviving fraction,[3]; 5 nM,0.975 ± 0.035
same,surviving fraction,[3]; 10 nM,1 ± 0.019
same,surviving fraction,[3]; 50 nM,0.892 ± 0.045
same,surviving fraction,[3]; 100 nM,0.914 ± 0.07
same,surviving fraction,[3]; 500 nM,0.811 ± 0.013
same,surviving fraction,[3]; 1000 nM,0.737 ± 0.045
same,surviving fraction,[4]; 0.5 nM,0.187 ± 0.025
same,surviving fraction,[4]; 1 nM,0.686 ± 0.035
same,surviving fraction,[4]; 5 nM,0.213 ± 0.011
same,surviving fraction,[4]; 10 nM,0.12 ± 0.0066
same,surviving fraction,[4]; 50 nM,0.0273 ± 0.0023
same,surviving fraction,[4]; 100 nM,0.0507 ± 0.0042
same,surviving fraction,[4]; 500 nM,0.0363 ± 0.001
same,surviving fraction,[4]; 1000 nM,0.0383 ± 0.0038
same,surviving fraction,[5]; 0.5 nM,0.876 ± 0.058
same,surviving fraction,[5]; 1 nM,0.843 ± 0.014
same,surviving fraction,[5]; 5 nM,0.199 ± 0.0066
same,surviving fraction,[5]; 10 nM,0.0977 ± 0.011
same,surviving fraction,[5]; 50 nM,0.0352 ± 0.004
same,surviving fraction,[5]; 100 nM,0.027 ± 0.0035
same,surviving fraction,[5]; 500 nM,0.017 ± 0.0013
same,surviving fraction,[5]; 1000 nM,0.0215 ± 0.0017
same,surviving fraction,[6]; 0.5 nM,1.04 ± 0.026
same,surviving fraction,[6]; 1 nM,0.9723 ± 0.0083
same,surviving fraction,[6]; 5 nM,1.05 ± 0.022
same,surviving fraction,[6]; 10 nM,1.03 ± 0.047
same,surviving fraction,[6]; 50 nM,1.03 ± 0.017
same,surviving fraction,[6]; 100 nM,1.03 ± 0.067
same,surviving fraction,[6]; 500 nM,0.995 ± 0.051
same,surviving fraction,[6]; 1000 nM,0.98 ± 0.065
same,surviving fraction,[7]; 0.5 nM,0.8472 ± 0.0081
same,surviving fraction,[7]; 1 nM,0.85 ± 0.027
same,surviving fraction,[7]; 5 nM,0.9002 ± 0.0069
same,surviving fraction,[7]; 10 nM,0.798 ± 0.021
same,surviving fraction,[7]; 50 nM,0.814 ± 0.026
same,surviving fraction,[7]; 100 nM,0.746 ± 0.04
same,surviving fraction,[7]; 500 nM,0.673 ± 0.03
same,surviving fraction,[7]; 1000 nM,0.656 ± 0.026
same,surviving fraction,[8]; 0.5 nM,1.04 ± 0.019
same,surviving fraction,[8]; 1 nM,1.01 ± 0.014
same,surviving fraction,[8]; 5 nM,0.979 ± 0.07
same,surviving fraction,[8]; 10 nM,1.08 ± 0.028
same,surviving fraction,[8]; 50 nM,1.02 ± 0.046
same,surviving fraction,[8]; 100 nM,1.039 ± 0.0068
same,surviving fraction,[8]; 500 nM,1.01 ± 0.066
same,surviving fraction,[8]; 1000 nM,1.04 ± 0.036
same,surviving fraction,[9]; 0.5 nM,0.965 ± 0.035
same,surviving fraction,[9]; 1 nM,0.957 ± 0.015
same,surviving fraction,[9]; 5 nM,0.975 ± 0.023
same,surviving fraction,[9]; 10 nM,0.963 ± 0.089
same,surviving fraction,[9]; 50 nM,0.965 ± 0.05
same,surviving fraction,[9]; 100 nM,0.97 ± 0.016
same,surviving fraction,[9]; 500 nM,0.959 ± 0.037
same,surviving fraction,[9]; 1000 nM,0.958 ± 0.089
same,area under dose-response curve,[10],1.97
same,area under dose-response curve,[11],0.524
same,area under dose-response curve,[12],3.04
same,area under dose-response curve,[13],0.531
same,area under dose-response curve,[14],0.716
same,area under dose-response curve,[15],3.35
same,area under dose-response curve,[16],2.6
same,area under dose-response curve,[17],3.39
same,area under dose-response curve,[18],3.19
